Results: ChEMBL document CHEMBL5055616, “Discovery of Acyl-sulfonamide Nav1.7 Inhibitors GDC-0276 and GDC-0310” (J Med Chem, 2021)
Values after ≈ are worked out from the molar mass of the structure shown. Each block holds one molecule with its values, some of them ahead of it.

Legend:
[1] = Volume of distribution at steady state in Beagle dog at 1 mg/kg, po or 0.5 mg/kg, iv measured upto 24 hrs by LC-MS/MS analysis; assay type: ADME, organism-based, Canis lupus familiaris; settings: in vivo
[2] = Oral bioavailability in Sprague-Dawley rat at 5 mg/kg measured upto 8 hrs by LC-MS/MS analysis; assay type: ADME, organism-based; settings: in vivo
[3] = Half life in Sprague-Dawley rat at 5 mg/kg, po or 1 mg/kg, iv measured upto 8 hrs by LC-MS/MS analysis; assay type: ADME, organism-based; settings: in vivo
[4] = Metabolic stability in human liver microsomes assessed as intrinsic clearance at 1 uM measured upto 60 mins in presence of NADPH by LC-MS/MS analysis; assay type: ADME, Microsome; settings: read-out: CLH
[5] = Volume of distribution at steady state in cynomolgus monkey at 2 mg/kg, po or 1 mg/kg, iv measured upto 24 hrs by LC-MS/MS analysis; assay type: ADME, organism-based, Macaca fascicularis; settings: in vivo
[6] = biological target: Sodium channel protein type 5 subunit alpha (Homo sapiens, UniProt Q14524); assay: Inhibition of human Nav1.5 expressed in HEK293 cells incubated for 1 hr in presence of veratridine and anthropleurin-C by sodium influx assay; assay type: cell-based
[7] = Plasma protein binding in human assessed as unbound fraction at 5 uM after 6 hrs by LC-MS/MS analysis based equilibrium dialysis method; assay type: ADME, cell-free
[8] = biological target: Sodium channel protein type 2 subunit alpha (Homo sapiens, UniProt Q99250); assay: Inhibition of full length human Nav1.2 expressed in HEK cells by whole cell voltage clamp analysis; assay type: cell-based
[9] = Metabolic stability in human hepatocytes assessed as intrinsic clearance at 1 uM measured upto 3 hrs by LC-MS/MS analysis; assay type: ADME, cell-based, Hepatocyte; settings: read-out: CLH
[10] = Plasma protein binding in Sprague-Dawley rat assessed as unbound fraction at 5 uM after 6 hrs by LC-MS/MS analysis based equilibrium dialysis method; assay type: ADME, cell-free
[11] = Volume of distribution at steady state in Sprague-Dawley rat at 5 mg/kg, po or 1 mg/kg, iv measured upto 8 hrs by LC-MS/MS analysis; assay type: ADME, organism-based; settings: in vivo
[12] = biological target: Sodium channel protein type 1 subunit alpha (Homo sapiens, UniProt P35498); assay: Inhibition of full length human Nav1.1 expressed in HEK cells by whole cell voltage clamp analysis; assay type: cell-based
[13] = Half life in Beagle dog at 1 mg/kg, po or 0.5 mg/kg, iv measured upto 24 hrs by LC-MS/MS analysis; assay type: ADME, organism-based, Canis lupus familiaris; settings: in vivo
[14] = Plasma protein binding in cynomolgus monkey assessed as unbound fraction at 5 uM after 6 hrs by LC-MS/MS analysis based equilibrium dialysis method; assay type: ADME, cell-free, Macaca fascicularis
[15] = Apparent permeability across apical to basolateral side in MDCK cells by transwell assay; assay type: ADME, cell-based, Canis lupus familiaris; settings: dog
[16] = Lipophilicity, logD of the compound at pH 7.4 by shake flask assay based LC-MS/MS analysis; assay type: physicochemical; settings: buffer
[17] = biological target: Sodium channel protein type 8 subunit alpha (Homo sapiens, UniProt Q9UQD0); assay: Inhibition of human Nav1.6 expressed in CHO cells by whole cell voltage clamp analysis; assay type: cell-based
[18] = Half life in cynomolgus monkey at 2 mg/kg, po or 1 mg/kg, iv measured upto 24 hrs by LC-MS/MS analysis; assay type: ADME, organism-based, Macaca fascicularis; settings: in vivo
[19] = Oral bioavailability in cynomolgus monkey at 2 mg/kg measured upto 24 hrs by LC-MS/MS analysis; assay type: ADME, organism-based, Macaca fascicularis; settings: in vivo
[20] = Plasma protein binding in Beagle dog assessed as unbound fraction at 5 uM after 6 hrs by LC-MS/MS analysis based equilibrium dialysis method; assay type: ADME, cell-free, Canis lupus familiaris
[21] = Oral bioavailability in Beagle dog at 1 mg/kg measured upto 24 hrs by LC-MS/MS analysis; assay type: ADME, organism-based, Canis lupus familiaris; settings: in vivo
[22] = Kinetic solubility of compound in PBS at pH 7.4; assay type: physicochemical; settings: read-out: Kinetic_solubility
Mus musculus = assay: Antinociceptive activity in po dosed FVB hNav1.7 transgenic mouse model of inherited erythromelalgia harboring I848T mutation assessed as reduction in number of nociceptive aconitine injected after compound administration; assay type: functional, organism-based; settings: for EC50: Mus musculus; for fEC50: route po
Cytochrome P450 3A4 = Cytochrome P450 3A4 (Homo sapiens, UniProt P08684); assay: Inhibition of CYP3A4 (unknown origin); assay type: ADME
Homo sapiens = organism: Homo sapiens; assay: Selectivity index, ratio of IC50 for human Nav1.5 expressed in HEK293 cells to IC50 for human Nav1.7 expressed in HEK293 cells; assay type: cell-based
[23] = biological target: Sodium channel protein type 4 subunit alpha (Homo sapiens, UniProt P35499); assay: Inhibition of full length human Nav1.4 expressed in HEK cells by whole cell voltage clamp analysis; assay type: cell-based

Sodium channel protein type 5 subunit alpha, sequence (Q14524 whole entry): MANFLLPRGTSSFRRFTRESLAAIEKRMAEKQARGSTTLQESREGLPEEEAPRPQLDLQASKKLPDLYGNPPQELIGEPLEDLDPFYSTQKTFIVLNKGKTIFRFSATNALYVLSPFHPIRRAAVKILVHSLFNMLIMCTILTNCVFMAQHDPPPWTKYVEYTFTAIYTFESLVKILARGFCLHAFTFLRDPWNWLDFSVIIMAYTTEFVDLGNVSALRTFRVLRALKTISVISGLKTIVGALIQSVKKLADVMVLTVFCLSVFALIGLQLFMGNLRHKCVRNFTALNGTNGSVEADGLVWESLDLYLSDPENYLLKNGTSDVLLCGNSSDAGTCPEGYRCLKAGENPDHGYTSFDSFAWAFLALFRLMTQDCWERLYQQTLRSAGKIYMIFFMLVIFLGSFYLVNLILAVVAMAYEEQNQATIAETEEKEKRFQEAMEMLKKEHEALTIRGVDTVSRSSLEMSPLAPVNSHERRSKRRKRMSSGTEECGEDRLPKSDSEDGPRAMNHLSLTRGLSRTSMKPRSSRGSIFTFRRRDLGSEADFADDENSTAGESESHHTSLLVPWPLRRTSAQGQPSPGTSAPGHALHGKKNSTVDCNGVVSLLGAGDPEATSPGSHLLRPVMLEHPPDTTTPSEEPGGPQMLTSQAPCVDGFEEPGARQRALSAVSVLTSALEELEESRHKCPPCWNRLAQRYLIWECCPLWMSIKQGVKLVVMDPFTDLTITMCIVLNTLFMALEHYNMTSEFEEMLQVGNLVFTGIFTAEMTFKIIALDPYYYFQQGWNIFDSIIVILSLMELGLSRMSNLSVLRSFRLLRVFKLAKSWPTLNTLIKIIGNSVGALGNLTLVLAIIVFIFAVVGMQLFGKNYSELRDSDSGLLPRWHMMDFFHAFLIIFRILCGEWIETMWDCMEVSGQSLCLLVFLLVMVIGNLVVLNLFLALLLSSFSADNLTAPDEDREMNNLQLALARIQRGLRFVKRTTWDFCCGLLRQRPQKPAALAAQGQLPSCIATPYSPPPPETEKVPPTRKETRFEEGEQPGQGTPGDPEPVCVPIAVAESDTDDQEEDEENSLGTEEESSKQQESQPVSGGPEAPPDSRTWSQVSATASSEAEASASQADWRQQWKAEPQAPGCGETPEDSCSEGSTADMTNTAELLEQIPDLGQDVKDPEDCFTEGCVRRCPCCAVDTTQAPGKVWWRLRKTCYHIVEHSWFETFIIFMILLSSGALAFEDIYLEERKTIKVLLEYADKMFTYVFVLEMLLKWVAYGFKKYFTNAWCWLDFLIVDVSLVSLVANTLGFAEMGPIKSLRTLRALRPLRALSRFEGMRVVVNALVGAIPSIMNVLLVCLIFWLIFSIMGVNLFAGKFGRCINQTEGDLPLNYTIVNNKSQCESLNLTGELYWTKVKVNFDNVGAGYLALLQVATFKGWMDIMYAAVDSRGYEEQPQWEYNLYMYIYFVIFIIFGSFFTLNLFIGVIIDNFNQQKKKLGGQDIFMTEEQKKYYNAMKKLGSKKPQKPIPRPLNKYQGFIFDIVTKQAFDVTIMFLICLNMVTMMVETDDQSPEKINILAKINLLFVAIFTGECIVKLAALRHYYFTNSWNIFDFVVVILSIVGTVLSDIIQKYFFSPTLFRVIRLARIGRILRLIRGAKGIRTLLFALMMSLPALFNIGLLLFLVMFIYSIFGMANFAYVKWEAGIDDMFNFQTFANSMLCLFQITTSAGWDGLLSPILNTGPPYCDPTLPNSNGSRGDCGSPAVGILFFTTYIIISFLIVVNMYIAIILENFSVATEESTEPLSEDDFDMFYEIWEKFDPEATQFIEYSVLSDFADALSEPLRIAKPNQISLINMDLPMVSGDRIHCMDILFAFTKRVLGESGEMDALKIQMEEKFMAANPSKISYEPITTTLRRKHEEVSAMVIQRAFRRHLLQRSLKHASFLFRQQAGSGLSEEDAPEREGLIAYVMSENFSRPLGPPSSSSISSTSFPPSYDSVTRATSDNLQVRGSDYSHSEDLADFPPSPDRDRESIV
Sodium channel protein type 2 subunit alpha, sequence (Q99250 whole entry): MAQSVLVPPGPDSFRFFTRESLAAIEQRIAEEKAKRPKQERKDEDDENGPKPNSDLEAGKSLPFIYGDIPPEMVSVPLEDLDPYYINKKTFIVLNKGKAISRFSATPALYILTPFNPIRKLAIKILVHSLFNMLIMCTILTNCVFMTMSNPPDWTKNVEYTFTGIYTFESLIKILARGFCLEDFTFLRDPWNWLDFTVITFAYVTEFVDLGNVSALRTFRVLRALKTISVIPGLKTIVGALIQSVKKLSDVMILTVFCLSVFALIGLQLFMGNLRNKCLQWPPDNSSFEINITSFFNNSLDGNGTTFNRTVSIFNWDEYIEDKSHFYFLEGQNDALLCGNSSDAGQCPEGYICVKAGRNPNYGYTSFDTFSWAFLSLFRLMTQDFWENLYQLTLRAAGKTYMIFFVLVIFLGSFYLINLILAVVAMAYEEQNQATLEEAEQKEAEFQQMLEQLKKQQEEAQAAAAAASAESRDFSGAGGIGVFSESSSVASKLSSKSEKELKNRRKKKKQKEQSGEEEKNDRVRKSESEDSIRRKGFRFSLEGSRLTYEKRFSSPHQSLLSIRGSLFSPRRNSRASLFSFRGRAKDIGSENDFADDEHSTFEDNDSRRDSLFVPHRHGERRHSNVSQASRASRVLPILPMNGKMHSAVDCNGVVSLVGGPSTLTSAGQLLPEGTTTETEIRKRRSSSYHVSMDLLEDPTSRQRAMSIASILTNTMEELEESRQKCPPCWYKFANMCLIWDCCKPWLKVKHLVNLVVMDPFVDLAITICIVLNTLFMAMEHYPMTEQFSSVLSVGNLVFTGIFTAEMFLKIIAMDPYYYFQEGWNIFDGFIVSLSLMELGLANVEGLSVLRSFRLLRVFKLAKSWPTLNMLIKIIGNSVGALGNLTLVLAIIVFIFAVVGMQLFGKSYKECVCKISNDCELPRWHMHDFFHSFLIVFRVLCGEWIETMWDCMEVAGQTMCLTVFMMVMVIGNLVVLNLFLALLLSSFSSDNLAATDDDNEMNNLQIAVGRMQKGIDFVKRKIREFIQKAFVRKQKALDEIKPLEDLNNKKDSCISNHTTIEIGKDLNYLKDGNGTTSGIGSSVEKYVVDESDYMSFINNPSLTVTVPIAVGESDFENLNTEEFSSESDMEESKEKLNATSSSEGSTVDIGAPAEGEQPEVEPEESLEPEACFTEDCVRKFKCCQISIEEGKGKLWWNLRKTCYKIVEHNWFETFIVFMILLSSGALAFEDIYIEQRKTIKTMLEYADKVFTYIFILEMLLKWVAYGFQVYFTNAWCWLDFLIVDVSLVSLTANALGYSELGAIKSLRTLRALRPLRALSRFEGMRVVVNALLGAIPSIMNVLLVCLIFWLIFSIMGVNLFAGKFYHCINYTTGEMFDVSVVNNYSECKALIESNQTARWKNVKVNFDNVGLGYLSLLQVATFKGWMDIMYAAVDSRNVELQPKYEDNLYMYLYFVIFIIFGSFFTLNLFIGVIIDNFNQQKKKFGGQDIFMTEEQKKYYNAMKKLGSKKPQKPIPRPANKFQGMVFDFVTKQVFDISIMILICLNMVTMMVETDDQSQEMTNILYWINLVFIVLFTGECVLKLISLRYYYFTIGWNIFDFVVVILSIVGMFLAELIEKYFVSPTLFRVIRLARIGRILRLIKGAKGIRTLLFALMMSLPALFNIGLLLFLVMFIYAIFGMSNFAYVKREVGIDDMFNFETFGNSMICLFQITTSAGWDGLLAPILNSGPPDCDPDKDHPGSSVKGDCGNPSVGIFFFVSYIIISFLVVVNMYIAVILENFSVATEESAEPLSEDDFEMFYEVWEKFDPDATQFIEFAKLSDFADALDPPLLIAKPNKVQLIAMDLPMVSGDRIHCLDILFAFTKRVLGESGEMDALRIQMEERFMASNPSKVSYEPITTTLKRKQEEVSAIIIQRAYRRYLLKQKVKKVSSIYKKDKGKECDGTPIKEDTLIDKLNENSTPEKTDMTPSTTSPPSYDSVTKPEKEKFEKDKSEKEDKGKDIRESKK
Cytochrome P450 3A4, sequence (P08684 whole entry): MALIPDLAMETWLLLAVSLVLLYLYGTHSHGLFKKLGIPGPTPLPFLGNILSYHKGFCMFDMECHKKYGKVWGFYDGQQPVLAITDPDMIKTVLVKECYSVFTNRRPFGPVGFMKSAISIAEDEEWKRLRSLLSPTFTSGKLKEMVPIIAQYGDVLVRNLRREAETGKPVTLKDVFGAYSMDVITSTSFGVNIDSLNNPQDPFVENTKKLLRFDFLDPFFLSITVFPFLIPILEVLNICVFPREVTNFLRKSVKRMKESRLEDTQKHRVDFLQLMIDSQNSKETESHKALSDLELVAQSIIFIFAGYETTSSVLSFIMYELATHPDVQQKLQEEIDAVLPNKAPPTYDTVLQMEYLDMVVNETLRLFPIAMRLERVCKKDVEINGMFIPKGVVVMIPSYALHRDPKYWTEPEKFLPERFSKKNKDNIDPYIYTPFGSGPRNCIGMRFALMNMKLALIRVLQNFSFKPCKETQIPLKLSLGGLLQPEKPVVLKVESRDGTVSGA

Structure (SMILES): O=C(NS(=O)(=O)C1CC1)c1cc(C2CC2)c(OCC23CC4CC(CC(C4)C2)C3)cc1F
CLint scaled at 1 µM [4]: 18 mL/min/kg | IC50 [6]: 260 nM | Ratio IC50 (Homo sapiens): 19 | CLint scaled at 1 µM [9]: 16 mL/min/kg | logD [16]: 3.2

Structure (SMILES): O=C(NS(=O)(=O)N1CCCC1)c1cc(C2CC2)c(OCC23CC4CC(CC(C4)C2)C3)cc1F
CLint scaled at 1 µM [4]: 8.5 mL/min/kg | IC50 [6]: 1500 nM | Ratio IC50 (Homo sapiens): 9 | CLint scaled at 1 µM [9]: < 6.2 mL/min/kg | logD [16]: 4.4

Structure (SMILES): CS(=O)(=O)NC(=O)c1cc(C2CC2)c(OCC23CC4CC(CC(C4)C2)C3)cc1F
CLint scaled at 1 µM [4]: 19 mL/min/kg | IC50 [6]: 1100 nM | CLint scaled at 1 µM [9]: 17 mL/min/kg | logD [16]: 3.3

Structure (SMILES): CS(=O)(=O)NC(=O)c1cc(C2CC2)c(OCC2CCN(C(c3ccccc3)c3ccccc3)CC2)cc1F
CLint scaled at 1 µM [4]: 5.5 mL/min/kg | IC50 [6]: 590 nM | Ratio IC50 (Homo sapiens): 8.9 | CLint scaled at 1 µM [9]: < 6.2 mL/min/kg | logD [16]: 2.7

Structure (SMILES): CS(=O)(=O)NC(=O)c1cc(C2CC2)c(OCC2CN(Cc3ccccc3)C2)cc1F
IC50 [6]: > 30000 nM | logD [16]: 0.1

Structure (SMILES): CS(=O)(=O)NC(=O)c1cc(C2CC2)c(OCC2CCN(Cc3ccccc3)CC2)cc1F
CLint scaled at 1 µM [4]: 4.8 mL/min/kg | IC50 [6]: > 30000 nM | Ratio IC50 (Homo sapiens): > 9.1 | CLint scaled at 1 µM [9]: 15 mL/min/kg | logD [16]: 0.3

Structure (SMILES): CS(=O)(=O)NC(=O)c1cc(C2CC2)c(OCC2CN(C(c3ccccc3)c3ccccc3)C2)cc1F
CLint scaled at 1 µM [4]: 6.7 mL/min/kg | IC50 [6]: 1100 nM | Ratio IC50 (Homo sapiens): 48 | CLint scaled at 1 µM [9]: 15 mL/min/kg | logD [16]: 1.8

Structure (SMILES): O=C(NS(=O)(=O)N1CCOCC1)c1cc(C2CC2)c(OCC23CC4CC(CC(C4)C2)C3)cc1F
CLint scaled at 1 µM [4]: 11 mL/min/kg | IC50 [6]: 110 nM | Ratio IC50 (Homo sapiens): 1 | CLint scaled at 1 µM [9]: 12 mL/min/kg | logD [16]: 3.8

Structure (SMILES): CS(=O)(=O)NC(=O)c1cc(C2CC2)c(OCC2CCN(Cc3ccc(OC(F)(F)F)cc3)CC2)cc1F
CLint scaled at 1 µM [4]: 9.9 mL/min/kg | IC50 [6]: 17000 nM | Ratio IC50 (Homo sapiens): 531 | logD [16]: 1.2

Structure (SMILES): O=C(NS(=O)(=O)N1CCC1)c1cc(C2CC2)c(OCC23CC4CC(CC(C4)C2)C3)cc1F
Vdss [1]: 0.17 L/kg | bioavailability [2]: 34% | half-life [3]: 0.95 h | IC50 [23]: 8.5 nM | CLint scaled at 1 µM [4]: 10 mL/min/kg | Vdss [5]: 0.3 L/kg | IC50 [6]: 870 nM | Fu [7]: 0.025% | IC50 [8]: 18.9 nM | CLint scaled at 1 µM [9]: 11 mL/min/kg | Fu [10]: 0.013% | Vdss [11]: 0.38 L/kg | half-life [13]: 5.5 h | Fu [14]: 0.025% | Papp A→B [15]: 4.7 ×10⁻⁶ cm/s | logD [16]: 3.1 | half-life [18]: 1.6 h | bioavailability [19]: 30% | Fu [20]: 0.005% | bioavailability [21]: 50% | solubility kinetic [22]: 5.3 µM (≈ 2.45 µg/mL) | EC50 (Mus musculus): 1700 nM | fEC50 (Mus musculus): 0.42 nM | IC50 (Cytochrome P450 3A4): > 10000 nM

Structure (SMILES): O=C(NS(=O)(=O)C1COC1)c1cc(C2CC2)c(OCC23CC4CC(CC(C4)C2)C3)cc1F
CLint scaled at 1 µM [4]: 16 mL/min/kg | IC50 [6]: 750 nM | Ratio IC50 (Homo sapiens): 20 | CLint scaled at 1 µM [9]: 6.7 mL/min/kg | logD [16]: 3.4

The next lines start with results.

Vdss [1]: 0.33 L/kg | bioavailability [2]: 68% | half-life [3]: 5 h | CLint scaled at 1 µM [4]: 9.6 mL/min/kg | Vdss [5]: 0.29 L/kg | Fu [7]: 0.196% | IC50 [8]: 38 nM | CLint scaled at 1 µM [9]: < 6.2 mL/min/kg | Fu [10]: 0.278% | Vdss [11]: 0.6 L/kg | IC50 [12]: 202 nM | half-life [13]: 46 h | Fu [14]: 0.129% | Papp A→B [15]: 11 ×10⁻⁶ cm/s | logD [16]: 2.3 | IC50 [17]: 198 nM | half-life [18]: 4.4 h | bioavailability [19]: 82% | Fu [20]: 0.157% | bioavailability [21]: 100% | solubility kinetic [22]: 52 µM (≈ 28.3 µg/mL) | EC50 (Mus musculus): 1100 nM | IC50 (Cytochrome P450 3A4): > 10000 nM
Structure (SMILES): C[C@@H](c1cc(Cl)cc(Cl)c1)N1CCC(COc2cc(F)c(C(=O)NS(C)(=O)=O)cc2C2CC2)CC1
IC50 [6]: 1500 nM | fEC50 (Mus musculus): 3.5 nM

CLint scaled at 1 µM [4]: 17 mL/min/kg | CLint scaled at 1 µM [9]: 16 mL/min/kg | logD [16]: 2.2
Structure (SMILES): C[C@H](c1cc(Cl)cc(Cl)c1)N1CCC(COc2cc(F)c(C(=O)NS(C)(=O)=O)cc2C2CC2)CC1

CLint scaled at 1 µM [4]: 9.9 mL/min/kg | CLint scaled at 1 µM [9]: 15 mL/min/kg
Structure (SMILES): CS(=O)(=O)NC(=O)c1cc(C2CC2)c(OCC2CCN(Cc3ccc(Cl)cc3)CC2)cc1F
IC50 [6]: 27000 nM | Ratio IC50 (Homo sapiens): 667

CLint scaled at 1 µM [4]: 7.8 mL/min/kg | CLint scaled at 1 µM [9]: < 6.2 mL/min/kg | logD [16]: 3.9
Structure (SMILES): CC(C)(c1cc(Cl)cc(Cl)c1)N1CCC(COc2cc(F)c(C(=O)NS(C)(=O)=O)cc2C2CC2)CC1
IC50 [6]: 3900 nM | Ratio IC50 (Homo sapiens): 144

CLint scaled at 1 µM [4]: 9.7 mL/min/kg | CLint scaled at 1 µM [9]: 15 mL/min/kg | logD [16]: 2
Structure (SMILES): CS(=O)(=O)NC(=O)c1cc(C2CC2)c(OCC2CCN(Cc3cc(Cl)cc(Cl)c3)CC2)cc1F
IC50 [6]: 7000 nM | Ratio IC50 (Homo sapiens): 58

CLint scaled at 1 µM [4]: 8.6 mL/min/kg | CLint scaled at 1 µM [9]: 7.5 mL/min/kg | logD [16]: 0.9
Structure (SMILES): CS(=O)(=O)NC(=O)c1cc(C2CC2)c(OCC2CCN(C(=O)c3cc(Cl)cc(Cl)c3)CC2)cc1F
IC50 [6]: 6400 nM | Ratio IC50 (Homo sapiens): 183
